From PubChem BioAssay (NCI) come the findings set out here.

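Where inhibition never reached the appropriate level, the endpoint shown equals the highest concentration tested. Otherwise, values were interpolated linearly from a five-concentration, 48-hour dose response in 96-well plates. TGI: concentration producing complete growth inhibition.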

Common to all, as to assay: NCI-60 cell line screen, 48 h
Test [1] deals with NCI-H460 lung.
The test system of test [2] is UO-31 renal.
Test [3] concerns A498 renal.
The test system of test [4] is NCI-H522 lung.
Test [5] has as its system NCI-H23 lung.
The subject of test [6] is PC-3 prostate.
In test [7] the test system is SK-MEL-5 melanoma.
Test [8] relates to SK-OV-3 ovarian.
Test [9] relates to RXF 393 renal.
The test system of test [10] is TK-10 renal.

Turning to `CCOC(=O)Cn1c(C(F)(F)F)nc2nc(Cl)c(Cl)nc21`, the TGI is above 100 µM in [1]; 10.9 µM in [2]; above 74 µM in test [3]; 58.2 µM in test [4]; above 87.4 µM in test [5]; above 100 µM in test [6]. In addition, the TGI in test [7] was 76.9 µM; in [8], above 100 µM; in test [9], above 100 µM; in [10] it was above 100 µM.
